In ChEMBL document CHEMBL1158536, “How well can the Caco-2/Madin-Darby canine kidney models predict effective human jejunal permeability?” (J Med Chem, 2010):

How the values were obtained:
[1] = Absolute bioavailability in human; assay type: ADME, organism-based; settings: in vivo
[2] = Dissociation constant, pKa of the compound; assay type: physicochemical
[3] = Octanol-water partition coefficient, log P of the compound; assay type: physicochemical
[4] = caco-2
[5] = clinical; settings: human
[6] = human

| Structure (SMILES) | bioavailability [1] [%] | pKa [2] | logP ([3]; read-out: logP) | Daq [4] [×10⁻⁶ cm2/s] | Papp [5] [×10⁻⁶ cm/s] | permeability [6] [×10⁻⁴ cm/s] | logP [3] |
| --- | --- | --- | --- | --- | --- | --- | --- |
| O=c1c(O[C@@H]2O[C@H](CO)[C@@H](O)[C@H](O)[C@H]2O)c(-c2ccc(O[C@@H]3O[C@H](CO)[C@@H](O)[C@H](O)[C@H]3O)c(O)c2)oc2cc(O)cc(O)c12 | 60 | 6.9 | 3.24 | 6.1 | 890 |  |  |
| CCOC(=O)[C@H](CCc1ccccc1)N[C@@H](C)C(=O)N1CCC[C@H]1C(=O)O | 51 | 2.92 | -1.39 | 6.7 | 157 |  |  |
| COc1ccc(CCN(C)CCCC(C#N)(c2ccc(OC)c(OC)c2)C(C)C)cc1OC (stereo not given) | 84 |  |  |  |  |  |  |
| CC(=O)Nc1ccc(O)cc1 [ACETAMINOPHEN] | 85 | 9.63 |  | 10.2 |  | 1.76 |  |
| N=C(N)NC(=O)c1nc(Cl)c(N)nc1N [AMILORIDE] | 50 |  | -0.26 | 8.4 | 163 |  |  |
| CC1(C)S[C@@H]2[C@H](NC(=O)[C@H](N)c3ccc(O)cc3)C(=O)N2[C@H]1C(=O)O [AMOXICILLIN] | 45 |  |  | 6.8 | 30 |  |  |
| Cc1cc(=O)n(-c2ccccc2)n1C [ANTIPYRINE] | 99 | 1.3 |  | 9.2 |  | 2.07 |  |
| CC(C)NCC(O)COc1ccc(CC(N)=O)cc1 (stereo not given) [ATENOLOL] |  |  |  | 7.9 |  |  |  |
| NC(CO)C(=O)NNCc1ccc(O)c(O)c1O (stereo not given) [BENSERAZIDE] | 70 | 6.19 | -1.78 | 8 | 290 |  |  |
| Cn1c(=O)c2c(ncn2C)n(C)c1=O [CAFFEINE] | 98 |  |  |  |  |  |  |
| NC(=O)N1c2ccccc2C=Cc2ccccc21 [CARBAMAZEPINE] | 90 |  |  | 8.3 | 430 |  |  |
| CC1=C(C(=O)O)N2C(=O)[C@@H](NC(=O)[C@H](N)c3ccccc3)[C@H]2SC1 [CEPHALEXIN ANHYDROUS] |  |  |  | 7 |  |  |  |
| O=C(N[C@H](CO)[C@H](O)c1ccc([N+](=O)[O-])cc1)C(Cl)Cl [CHLORAMPHENICOL] | 82 |  |  |  |  |  |  |
| CN/C(=N/CCSCc1nc[nH]c1C)NC#N [CIMETIDINE] | 60 | 6.76 |  | 8.1 | 26 |  |  |
| CN1CC(=O)NC1=N [CREATININE] | 80 | 4.66 |  | 11.6 | 29 |  | -3 |
| CNCCCN1c2ccccc2CCc2ccccc21 [DESIPRAMINE] | 70 |  |  | 7.9 | 440 |  |  |
| OC[C@H]1OC(O)[C@H](O)[C@@H](O)[C@@H]1O (stereo not given in full) [DEXTROSE] | 100 |  | -0.67 | 9.4 | 560 |  |  |
| O=C(O)Cc1ccccc1Nc1c(Cl)cccc1Cl [DICLOFENAC] | 54 |  |  |  |  |  |  |
| C[C@H]1O[C@@H](O[C@H]2[C@@H](O)C[C@H](O[C@H]3[C@@H](O)C[C@H](O[C@H]4CC[C@@]5(C)[C@H](CC[C@@H]6[C@@H]5C[C@@H](O)[C@]5(C)[C@@H](C7=CC(=O)OC7)CC[C@]65O)C4)O[C@@H]3C)O[C@@H]2C)C[C@H](O)[C@@H]1O [DIGOXIN] | 70 |  |  |  |  |  |  |
| C[C@H](N[C@@H](CCc1ccccc1)C(=O)O)C(=O)N1CCC[C@H]1C(=O)O [ENALAPRILAT ANHYDROUS] | 8 | 3.2 |  | 7 | 10 |  |  |
| COc1cc([C@@H]2c3cc4c(cc3[C@@H](O[C@@H]3O[C@@H]5CO[C@@H](C)O[C@H]5[C@H](O)[C@H]3O)[C@H]3COC(=O)[C@H]23)OCO4)cc(OC)c1O [ETOPOSIDE] | 52 |  |  |  |  |  |  |
| O=C1OC2(c3ccc(O)cc3Oc3cc(O)ccc32)c2ccccc21 [FLUORESCEIN] | 99 |  |  |  |  |  |  |
| CC(C)n1c(/C=C/C(O)CC(O)CC(=O)O)c(-c2ccc(F)cc2)c2ccccc21 (stereo not given) [FLUVASTATIN] | 95 |  |  | 6.5 | 238 |  |  |
| NS(=O)(=O)c1cc(C(=O)O)c(NCc2ccco2)cc1Cl [FUROSEMIDE] |  |  |  | 7.1 |  |  |  |
| COC1=CC(=O)C[C@@H](C)[C@]12Oc1c(Cl)c(OC)cc(OC)c1C2=O [GRISEOFULVIN] | 95 |  |  | 6.9 | 114 |  |  |
| NS(=O)(=O)c1cc2c(cc1Cl)NCNS2(=O)=O [HYDROCHLOROTHIAZIDE] | 55 |  | -0.03 | 7.5 | 4 |  |  |
| CC(C)Cc1ccc(C(C)C(=O)O)cc1 (stereo not given) [IBUPROFEN] | 85 |  |  |  |  |  |  |
| COc1ccc2c(c1)c(CC(=O)O)c(C)n2C(=O)c1ccc(Cl)cc1 [INDOMETHACIN] | 99 |  |  |  |  |  |  |

| Structure (SMILES) | bioavailability [1] [%] | pKa [2] | logP ([3]; read-out: logP) | Daq [4] [×10⁻⁶ cm2/s] | Papp [5] [×10⁻⁶ cm/s] | permeability [6] [×10⁻⁴ cm/s] | logP [3] |
| --- | --- | --- | --- | --- | --- | --- | --- |
| N=C(N)NCCCNC(=O)[C@@H]1CCCCN1C(=O)[C@@H](CC1CCCCC1)NCC(=O)O [INOGATRAN] | 5 | 1.6 | -0.6 |  |  |  |  |
| Cc1cc(NC(=O)C2=C(O)c3ccccc3S(=O)(=O)N2C)no1 [ISOXICAM] | 100 |  |  |  |  |  |  |
| CC(C(=O)O)c1cccc(C(=O)c2ccccc2)c1 (stereo not given) [KETOPROFEN] |  |  | 3.16 | 8 | 840 |  |  |
| CC(C)C[C@H](N)C(=O)O [LEUCINE] | 100 | 2.38 |  | 10.9 | 620 |  |  |
| N[C@@H](Cc1ccc(O)c(O)c1)C(=O)O [LEVODOPA] | 100 | 2.21 | -3 | 9 | 340 |  |  |
| CCC[C@@H]1C[C@@H](C(=O)N[C@@H]([C@H]2O[C@H](SC)[C@H](O)[C@@H](O)[C@H]2O)[C@@H](C)O)N(C)C1 [LINCOMYCIN] | 25 |  |  |  |  |  |  |
| NCCCC[C@H](N[C@@H](CCc1ccccc1)C(=O)O)C(=O)N1CCC[C@H]1C(=O)O [LISINOPRIL ANHYDROUS] | 27 | 3.16 | -2.86 |  |  |  |  |
| CCCCc1nc(Cl)c(CO)n1Cc1ccc(-c2ccccc2-c2nn[nH]n2)cc1 [LOSARTAN] | 50 | 2.95 | 3.74 | 6.4 | 114 |  |  |
| C[C@](N)(Cc1ccc(O)c(O)c1)C(=O)O [METHYLDOPA] | 26 | 2.21 | -3 | 8.8 | 10 |  |  |
| COCCc1ccc(OCC(O)CNC(C)C)cc1 (stereo not given) [METOPROLOL] |  |  |  | 7.9 | 90 |  |  |
| CC(C)(C)NCC(O)COc1cccc2c1CC(O)C(O)C2 (stereo not given) [NADOLOL] | 30 |  |  |  |  |  |  |
| COc1ccc2cc([C@H](C)C(=O)O)ccc2c1 [NAPROXEN] |  |  |  | 8.4 |  |  |  |
| CC1COc2c(N3CCN(C)CC3)c(F)cc3c(=O)c(C(=O)O)cn1c23 (stereo not given) [OFLOXACIN] | 90 |  |  |  |  |  |  |
| N[C@@H](Cc1ccccc1)C(=O)O [PHENYLALANINE] | 100 | 2.2 |  | 9.8 | 336 |  |  |
| CN1C(C(=O)Nc2ccccn2)=C(O)c2ccccc2S1(=O)=O [PIROXICAM] | 100 |  |  | 7.1 | 665 |  |  |
| CC(C)NCC(O)COc1cccc2ccccc12 (stereo not given) [PROPRANOLOL] | 100 |  |  | 8 |  |  |  |
| CCCc1cc(=O)[nH]c(=S)[nH]1 [PROPYLTHIOURACIL] | 85 |  |  |  |  |  |  |
| CNC(=C[N+](=O)[O-])NCCSCc1ccc(CN(C)C)o1 [RANITIDINE] | 50 | 2.11 |  | 7.3 | 27.3 |  |  |
| O=C(O)c1ccccc1O [SALICYLIC ACID] | 100 |  |  | 10.6 | 267 |  |  |
| CC(C)NCC(O)c1ccc(NS(C)(=O)=O)cc1 (stereo not given) [SOTALOL] | 95 |  |  |  |  |  |  |
| C[S+]([O-])CCCCN=C=S (stereo not given) [SULFORAPHANE] | 74 |  | 1.68 | 9.5 |  | 18.7 |  |
| CC(C)(C)NCC(O)c1cc(O)cc(O)c1 (stereo not given) [TERBUTALINE] |  | 8.67 | -0.08 | 8.5 | 30 |  |  |
| CC1=C(/C=C/C(C)=C/C=C/C(C)=C/C(=O)O)C(C)(C)CCC1 [TRETINOIN] | 90 |  |  | 7.5 | 99 |  |  |
| COc1cc(Cc2cnc(N)nc2N)cc(OC)c1OC [TRIMETHOPRIM] | 98 |  |  |  |  |  |  |
| NC(N)=O [UREA] |  |  | -1.64 | 15.5 | 140 |  |  |
| CC(C)[C@H](N)C(=O)OCCOCn1cnc2c(=O)[nH]c(N)nc21 [VALACYCLOVIR] | 80 | 7.4 | -1.04 | 7.2 | 166 |  |  |
| O [WATER] |  |  |  | 26.7 | 140 |  |  |
